According to BigSolDB 2.1:

O=P(NCc1cccc(CNP(=O)(Oc2ccccc2)Oc2ccccc2)c1)(Oc1ccccc1)Oc1ccccc1
solubility (mole fraction)
Details	in 1-methoxy-2-propanol	in 1-methoxy-2-propyl acetate	in 1-propoxy-2-propanol	in 2-(2-methoxypropoxy) propanol
293.15 K	0.000609	0.00319	0.000508	0.00267
298.15 K	0.000758	0.00373	0.000636	0.00331
303.15 K	0.000936	0.0043	0.000766	0.00401
308.15 K	0.00114	0.0049	0.000964	0.00487
313.15 K	0.00138	0.00547	0.00121	0.00584
318.15 K	0.00169	0.00635	0.00144	0.00714
323.15 K	0.00204	0.00708	0.00182	0.00829
328.15 K	0.00255	0.0079	0.00216	0.00995
333.15 K	0.00305	0.00891	0.00259	0.0116
338.15 K	0.00374	0.01	0.00316	0.0138
343.15 K	0.00432	0.0115	0.00374	0.0156

O=P(Oc1ccccc1)(Oc1ccccc1)N1CCN(P(=O)(Oc2ccccc2)Oc2ccccc2)CC1
solubility (mole fraction)
Details	in 1-methoxy-2-propanol	in 1-methoxy-2-propyl acetate	in 1-propoxy-2-propanol	in 2-(2-methoxypropoxy) propanol
293.15 K	0.000356	0.000351	0.000353	0.000974
298.15 K	0.000447	0.000443	0.000445	0.00117
303.15 K	0.000589	0.000517	0.000564	0.00139
308.15 K	0.000782	0.00063	0.000715	0.00167
313.15 K	0.00102	0.000762	0.000893	0.00199
318.15 K	0.00132	0.000945	0.00112	0.00236
323.15 K	0.00168	0.00115	0.00141	0.0029
328.15 K	0.00215	0.00141	0.00177	0.00344
333.15 K	0.00282	0.0017	0.00219	0.00408
338.15 K	0.00367	0.00204	0.00275	0.00474
343.15 K	0.00457	0.00248	0.00339	0.00562
